ChEMBL document CHEMBL3596159, “Beyond substrate analogues: new inhibitor chemotypes for glycosyltransferases” (Medchemcomm, 2014)
Each block holds one compound with its values, some of them ahead of it.

Legend:
[1] = target: Ceramide glucosyltransferase (Homo sapiens, UniProt Q16739); assay: Inhibition of glucosylceramide synthase (unknown origin)
[2] = Inhibition of MGDG (unknown origin)
[3] = target: T1, Beta-galactoside alpha-2,6-sialyltransferase 1 (Homo sapiens, UniProt P15907); assay: Inhibition of human ST6Gal1
T1 sequence (P15907 whole entry): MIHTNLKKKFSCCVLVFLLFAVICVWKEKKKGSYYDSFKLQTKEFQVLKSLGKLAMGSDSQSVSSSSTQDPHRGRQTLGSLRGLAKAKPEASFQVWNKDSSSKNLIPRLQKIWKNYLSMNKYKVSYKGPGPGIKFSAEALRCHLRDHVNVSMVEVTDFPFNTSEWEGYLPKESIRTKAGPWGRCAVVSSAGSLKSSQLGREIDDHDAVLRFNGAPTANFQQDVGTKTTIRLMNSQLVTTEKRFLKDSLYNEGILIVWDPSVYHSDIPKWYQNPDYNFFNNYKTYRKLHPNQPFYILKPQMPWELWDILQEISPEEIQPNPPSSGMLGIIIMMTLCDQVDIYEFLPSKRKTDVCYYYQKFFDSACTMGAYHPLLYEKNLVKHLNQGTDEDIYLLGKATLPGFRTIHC

[4] = target: Beta-galactoside alpha-2,6-sialyltransferase 1 (Rattus norvegicus, UniProt P13721); assay: Inhibition of rat ST6Gal1
[5] = target: T1, Beta-galactoside alpha-2,6-sialyltransferase 1; assay: Inhibition of ST6N (unknown origin)
[6] = target: T2, CMP-N-acetylneuraminate-beta-galactosamide-alpha-2,3-sialyltransferase 1 (Homo sapiens, UniProt Q11201); assay: Inhibition of ST3Gal 1 (unknown origin)
T2 sequence (Q11201 whole entry): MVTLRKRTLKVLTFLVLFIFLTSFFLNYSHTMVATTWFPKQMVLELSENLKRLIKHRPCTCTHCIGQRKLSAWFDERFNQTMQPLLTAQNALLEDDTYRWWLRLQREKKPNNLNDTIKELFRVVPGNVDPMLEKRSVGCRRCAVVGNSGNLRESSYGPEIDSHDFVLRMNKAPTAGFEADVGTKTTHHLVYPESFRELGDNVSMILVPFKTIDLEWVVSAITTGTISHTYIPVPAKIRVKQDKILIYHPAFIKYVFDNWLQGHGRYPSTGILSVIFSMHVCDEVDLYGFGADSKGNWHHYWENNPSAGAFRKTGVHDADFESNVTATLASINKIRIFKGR

[7] = target: T3, 4-galactosyl-N-acetylglucosaminide 3-alpha-L-fucosyltransferase FUT5 (Homo sapiens, UniProt Q11128); assay: Inhibition of FucT-5 (unknown origin)
T3 sequence (Q11128 whole entry): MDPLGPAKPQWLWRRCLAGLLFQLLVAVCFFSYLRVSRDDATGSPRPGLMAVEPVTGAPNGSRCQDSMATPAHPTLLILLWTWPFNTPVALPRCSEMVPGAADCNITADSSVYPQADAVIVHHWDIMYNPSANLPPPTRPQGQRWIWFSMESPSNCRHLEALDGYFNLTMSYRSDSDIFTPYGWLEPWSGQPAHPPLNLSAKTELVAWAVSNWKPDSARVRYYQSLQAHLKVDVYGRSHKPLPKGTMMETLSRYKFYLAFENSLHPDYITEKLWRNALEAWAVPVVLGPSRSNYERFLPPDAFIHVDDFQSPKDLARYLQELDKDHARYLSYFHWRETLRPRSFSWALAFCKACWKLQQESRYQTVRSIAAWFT

[8] = target: T4, 4-galactosyl-N-acetylglucosaminide 3-alpha-L-fucosyltransferase FUT6 (Homo sapiens, UniProt P51993); assay: Inhibition of FucT-6 (unknown origin)
T4 sequence (P51993 whole entry): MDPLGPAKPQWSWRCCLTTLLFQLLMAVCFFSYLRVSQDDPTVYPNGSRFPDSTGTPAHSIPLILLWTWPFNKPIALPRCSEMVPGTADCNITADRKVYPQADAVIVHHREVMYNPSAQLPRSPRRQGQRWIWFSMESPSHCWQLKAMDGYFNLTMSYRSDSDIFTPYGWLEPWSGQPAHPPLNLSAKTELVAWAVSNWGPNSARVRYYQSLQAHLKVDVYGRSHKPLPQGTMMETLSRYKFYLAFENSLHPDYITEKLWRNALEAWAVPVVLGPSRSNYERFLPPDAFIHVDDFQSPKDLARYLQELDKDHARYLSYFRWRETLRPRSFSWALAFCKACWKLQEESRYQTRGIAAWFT

[9] = target: T5, CMP-N-acetylneuraminate-beta-1,4-galactoside alpha-2,3-sialyltransferase (Homo sapiens, UniProt Q11203); assay: Inhibition of ST3N (unknown origin)
T5 sequence (Q11203 whole entry): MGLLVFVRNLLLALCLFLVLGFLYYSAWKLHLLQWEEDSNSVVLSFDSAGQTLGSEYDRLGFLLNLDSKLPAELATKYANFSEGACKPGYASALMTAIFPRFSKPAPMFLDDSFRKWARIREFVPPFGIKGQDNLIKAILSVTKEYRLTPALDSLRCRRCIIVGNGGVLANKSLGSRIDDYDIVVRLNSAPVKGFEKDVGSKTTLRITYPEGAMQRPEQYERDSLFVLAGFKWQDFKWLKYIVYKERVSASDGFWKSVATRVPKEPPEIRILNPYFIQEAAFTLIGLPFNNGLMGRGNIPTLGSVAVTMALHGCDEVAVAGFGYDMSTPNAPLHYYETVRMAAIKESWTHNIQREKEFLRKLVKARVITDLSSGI

[10] = Inhibition of beta-1,4-GalT (unknown origin); design: species or system Homo sapiens
[11] = target: Alpha-(1,6)-fucosyltransferase (Homo sapiens, UniProt Q9BYC5); assay: Inhibition of FucT-8 in human blood platelets
[12] = Inhibition of bovine beta-1,4-GalT using alpha-Fucp-(1-2)-beta-Galp-O-(CH2)7-CH3 as acceptor and UDP-Gal as substrate by radiochemical assay; design: species or system Bos taurus
[13] = target: UDP-N-acetylglucosamine--peptide N-acetylglucosaminyltransferase 110 kDa subunit (Homo sapiens, UniProt O15294); assay: Inhibition of nucleocytoplasmic OGT (unknown origin)
[14] = Inhibition of short OGT (unknown origin); design: species or system Homo sapiens
[15] = target: T6, Phospho-N-acetylmuramoyl-pentapeptide-transferase/UDP-N-acetylglucosamine--N-acetylmuramyl-(pentapeptide) pyrophosphoryl-undecaprenol N-acetylglucosamine transf (Escherichia coli K-12, UniProt P0A6W3+P17443); assay: Inhibition of Escherichia coli MraY/MurG; type: protein assay
T6 sequence (P0A6W3 whole entry): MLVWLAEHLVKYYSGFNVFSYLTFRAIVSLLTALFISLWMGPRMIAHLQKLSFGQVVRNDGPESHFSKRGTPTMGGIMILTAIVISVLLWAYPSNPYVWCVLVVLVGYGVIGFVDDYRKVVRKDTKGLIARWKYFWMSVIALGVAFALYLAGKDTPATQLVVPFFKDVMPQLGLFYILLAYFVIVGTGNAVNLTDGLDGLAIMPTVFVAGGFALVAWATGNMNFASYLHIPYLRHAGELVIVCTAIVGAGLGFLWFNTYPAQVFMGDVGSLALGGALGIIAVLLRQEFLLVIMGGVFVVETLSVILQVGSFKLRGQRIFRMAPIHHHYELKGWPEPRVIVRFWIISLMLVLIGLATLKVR
T6 sequence (P17443 whole entry): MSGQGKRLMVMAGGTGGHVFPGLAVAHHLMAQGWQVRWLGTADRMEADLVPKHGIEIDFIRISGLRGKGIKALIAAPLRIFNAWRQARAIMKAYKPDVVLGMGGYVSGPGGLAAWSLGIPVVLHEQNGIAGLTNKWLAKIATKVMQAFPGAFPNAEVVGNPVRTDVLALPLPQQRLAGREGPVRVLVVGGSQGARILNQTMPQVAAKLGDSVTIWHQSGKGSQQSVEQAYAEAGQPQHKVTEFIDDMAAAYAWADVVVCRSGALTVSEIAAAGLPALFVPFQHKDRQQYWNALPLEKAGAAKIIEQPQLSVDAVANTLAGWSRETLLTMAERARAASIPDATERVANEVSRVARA

[16] = target: UDP-N-acetylglucosamine--N-acetylmuramyl-(pentapeptide) pyrophosphoryl-undecaprenol N-acetylglucosamine transferase (Escherichia coli (strain K12), UniProt P17443); assay: Inhibition of Escherichia coli MurG

Chain of UDP-N-acetylglucosamine--peptide N-acetylglucosaminyltransferase 110 kDa subunit (O15294 whole entry): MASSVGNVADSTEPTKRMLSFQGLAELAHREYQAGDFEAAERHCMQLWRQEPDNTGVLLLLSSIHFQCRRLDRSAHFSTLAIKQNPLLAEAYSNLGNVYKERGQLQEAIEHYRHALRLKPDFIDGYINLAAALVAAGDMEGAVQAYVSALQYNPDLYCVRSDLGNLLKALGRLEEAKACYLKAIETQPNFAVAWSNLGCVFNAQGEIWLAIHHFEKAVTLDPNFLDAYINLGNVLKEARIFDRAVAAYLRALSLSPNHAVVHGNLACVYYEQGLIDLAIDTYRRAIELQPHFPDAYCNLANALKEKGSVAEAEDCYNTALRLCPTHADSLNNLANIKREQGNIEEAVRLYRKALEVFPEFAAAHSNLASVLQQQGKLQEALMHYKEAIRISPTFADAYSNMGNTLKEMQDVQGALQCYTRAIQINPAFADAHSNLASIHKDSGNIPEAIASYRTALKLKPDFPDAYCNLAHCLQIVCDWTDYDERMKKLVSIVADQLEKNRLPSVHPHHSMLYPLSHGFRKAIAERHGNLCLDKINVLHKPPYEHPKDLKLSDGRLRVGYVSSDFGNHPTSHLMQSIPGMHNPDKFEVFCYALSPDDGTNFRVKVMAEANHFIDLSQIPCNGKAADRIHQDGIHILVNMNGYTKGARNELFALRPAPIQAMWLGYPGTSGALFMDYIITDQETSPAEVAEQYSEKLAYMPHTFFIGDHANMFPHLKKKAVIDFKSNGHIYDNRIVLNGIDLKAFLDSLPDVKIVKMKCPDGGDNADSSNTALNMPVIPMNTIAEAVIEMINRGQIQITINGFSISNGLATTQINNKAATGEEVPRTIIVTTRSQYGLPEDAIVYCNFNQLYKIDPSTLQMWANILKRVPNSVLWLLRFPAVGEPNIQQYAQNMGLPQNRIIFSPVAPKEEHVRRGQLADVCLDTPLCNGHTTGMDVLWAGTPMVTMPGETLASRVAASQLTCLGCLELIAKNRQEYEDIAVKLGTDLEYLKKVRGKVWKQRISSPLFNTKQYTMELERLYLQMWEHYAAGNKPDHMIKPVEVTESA
Chain of Alpha-(1,6)-fucosyltransferase (Q9BYC5 whole entry): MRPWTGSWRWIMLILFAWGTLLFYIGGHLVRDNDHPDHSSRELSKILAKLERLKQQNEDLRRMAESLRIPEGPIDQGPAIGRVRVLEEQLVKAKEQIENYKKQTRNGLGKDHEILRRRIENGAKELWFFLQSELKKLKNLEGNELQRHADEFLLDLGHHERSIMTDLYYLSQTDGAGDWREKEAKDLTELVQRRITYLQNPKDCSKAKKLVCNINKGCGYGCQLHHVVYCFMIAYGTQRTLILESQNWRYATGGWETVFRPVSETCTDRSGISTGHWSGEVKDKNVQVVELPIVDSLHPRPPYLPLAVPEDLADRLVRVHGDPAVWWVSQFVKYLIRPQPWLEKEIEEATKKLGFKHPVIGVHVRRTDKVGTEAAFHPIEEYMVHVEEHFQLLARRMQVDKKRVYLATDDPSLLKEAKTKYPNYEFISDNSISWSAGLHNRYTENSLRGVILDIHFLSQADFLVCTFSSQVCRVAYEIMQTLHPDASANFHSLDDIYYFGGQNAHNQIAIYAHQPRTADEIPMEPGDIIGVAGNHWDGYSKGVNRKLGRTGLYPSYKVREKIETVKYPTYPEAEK
Chain of Ceramide glucosyltransferase (Q16739 whole entry): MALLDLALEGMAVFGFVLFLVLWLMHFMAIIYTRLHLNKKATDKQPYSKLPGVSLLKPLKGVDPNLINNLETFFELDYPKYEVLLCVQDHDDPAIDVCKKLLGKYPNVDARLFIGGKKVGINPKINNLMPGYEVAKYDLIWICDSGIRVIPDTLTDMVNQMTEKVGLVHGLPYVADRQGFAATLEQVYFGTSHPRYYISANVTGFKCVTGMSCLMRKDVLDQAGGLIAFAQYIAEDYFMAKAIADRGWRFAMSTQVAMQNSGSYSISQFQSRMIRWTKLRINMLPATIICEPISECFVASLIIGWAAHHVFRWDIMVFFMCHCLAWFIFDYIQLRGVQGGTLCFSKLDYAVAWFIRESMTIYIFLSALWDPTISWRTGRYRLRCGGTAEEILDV
Chain of Beta-galactoside alpha-2,6-sialyltransferase 1 (Rattus norvegicus, UniProt P13721) (P13721 whole entry): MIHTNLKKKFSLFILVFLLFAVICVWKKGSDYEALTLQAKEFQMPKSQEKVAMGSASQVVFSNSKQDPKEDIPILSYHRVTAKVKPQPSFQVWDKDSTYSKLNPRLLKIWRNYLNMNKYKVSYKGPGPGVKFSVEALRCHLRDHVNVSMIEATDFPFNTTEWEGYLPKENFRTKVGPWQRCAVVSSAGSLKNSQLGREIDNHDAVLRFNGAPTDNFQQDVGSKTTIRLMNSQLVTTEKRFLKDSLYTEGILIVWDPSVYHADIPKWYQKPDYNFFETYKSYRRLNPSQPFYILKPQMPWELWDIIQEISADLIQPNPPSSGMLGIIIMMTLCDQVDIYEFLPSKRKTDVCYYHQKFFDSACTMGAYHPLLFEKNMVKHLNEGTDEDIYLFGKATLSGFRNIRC

Compound: O=c1c(O)c(-c2ccc(O)c(O)c2)oc2ccccc12
- IC50 [3]: 7.5 µM
- IC50 [4]: 1.9 µM

Compound: C[C@@H]1CC[C@H]2C(C)(C)[C@H](O)CC[C@]2(C)[C@@]12Cc1c(O)cc3c(c1O2)COC3=O
- IC50 [5]: 8 µM
- IC50 [6]: 30.2 µM
- IC50 [7]: > 200 µM
- IC50 [8]: > 200 µM
- IC50 [9]: 50 µM

Compound: O=C(NC[C@H]1O[C@@H](n2ccc(=O)[nH]c2=O)[C@H](O)[C@@H]1O)c1cccc(CO[C@@H]2O[C@H](CO)[C@H](O)[C@H](O)[C@H]2O)n1
- IC50 [10]: 152 µM

Compound: O=Cc1ccc(-c2cn([C@@H]3O[C@H](COP(=O)(O)OP(=O)(O)O[C@H]4O[C@H](CO)[C@H](O)[C@H](O)[C@H]4O)[C@@H](O)[C@H]3O)c(=O)[nH]c2=O)s1
- Ki [12]: 39 µM

Compound: O=C(O)C1CC(=O)N(CC23CC4CC(CC(C4)C2)C3)/C(=N/c2ccc(Cl)cc2)S1 (stereo not drawn)
- IC50 [13]: 53 µM
- IC50 [14]: 30 µM

Compound: CN[C@H](CC(C)C)C(=O)N[C@H]1C(=O)N[C@@H](CC(N)=O)C(=O)N[C@H]2C(=O)N[C@H]3C(=O)N[C@H](C(=O)N[C@H](C(=O)O)c4cc(O)cc(O)c4-c4cc3ccc4O)[C@H](O)c3ccc(c(Cl)c3)Oc3cc2cc(c3O[C@@H]2O[C@H](CO)[C@@H](O)[C@H](O)[C@H]2O[C@H]2C[C@](C)(N)[C@H](O)[C@H](C)O2)Oc2ccc(cc2Cl)[C@H]1O [VANCOMYCIN]
- IC50 [15]: 9 µM
- IC50 [16]: 10 µM

Results, then the compound that gave them:

- IC50 [1]: 4 µM
Compound: CCCCCCCCCC(=O)N[C@H](CN1CCCC1)[C@H](O)c1ccccc1

- IC50 [2]: 10 µM
Compound: C[C@@H](COC(=O)N1CCC(n2c(=O)[nH]c3ccccc32)CC1)N(Cc1ccccc1)Cc1ccccc1

- IC50 [2]: 12 µM
Compound: O=C(OC[C@H](Cc1ccccc1)N(Cc1ccccc1)Cc1ccccc1)N1CCC(n2c(=O)[nH]c3ccccc32)CC1

- Ki [11]: 11 µM
Compound: Nc1c(S(=O)(=O)O)cc(Nc2ccc(Nc3nc(Cl)nc(Nc4ccccc4S(=O)(=O)O)n3)c(S(=O)(=O)O)c2)c2c1C(=O)c1ccccc1C2=O [CIBACRON BLUE 3GA]

- IC50 [14]: 27 µM
Compound: O=C(Oc1ccccc1)n1c(=O)oc2ccc(Cl)cc21
